According to patent US9593146B2, “CD44v6-derived peptides for treating metastasizing cancer” (AMCURE GMBH, priority 2012, dated 2017):

Columns and labels:
[1] = test system: VEGFR-2; assay: VEGF-A165 induced activation of VEGFR-2 and Erk in endothelial cells; type: cell-based, human; conditions: HUVEC, HAOEC and HCMEC
Description: FIG. 13: Activation of VEGFR-2 and signal transduction induced by VEGF-A165 depends on CD44v6. Different ECs (HUVEC, HAOEC and HCMEC) were serum starved and incubated with several reagents (αCD44v6, v6 14mer and the controls IgG and ctrl pep). The cells were then induced with VEGF-A165 and lysed. The cell lysates were loaded on SDS-PAGE and subjected to Western blot analysis. Activation of the receptor tyrosine kinase VEGFR-2 and of its downstream target Erk was detected by means of antibodies that detect phosphorylated forms of VEGFR-2 and Erk. The loading control was performed with antibodies recognising total VEGFR-2 and Erk levels. The numbers indicate the fold induction as calculated with the computer programme ImageJ.
In order investigate if an isoform of CD44 is necessary for VEGFR-2 activation, the three tools inhibiting CD44v6 activity were used in an experiment where VEGFR-2 was activated by VEGF-A165. As expected all ECs responded to VEGF-A165 treatment with VEGFR-2 phosphorylation and signal transduction to Erk. […] Thus CD44v6 is also necessary for a functional VEGF-A165/VEGFR-2 system in these cells.

[2] = test system: hVEGF; assay: Human VEGF in cell culture supernatant of L3.6pl cells; type: cell-based; conditions: 200 ng/ml peptide in the culture medium, 5 days
Description: Determination of human HGF and VEGF levels in cell culture medium of L3.6pl cells were performed using the Quantikine Human HGF Immunoassay and Quantikine Human VEGF Immunoassay from Roche (Mannheim, GER) and R&D Systems (Wiesbaden, Germany). For this purpose 3×10^6 cells were cultured for 5 days in a 15 cm plate in the presence of the respective peptides as indicated. The supernatant (20 ml) was centrifuged (1200 rpm) and the assay was performed according to manufacturer's instructions.

[3] = test system: HUVEC; assay: HUVEC spheroid sprouting assay; type: cell-based, human; conditions: 100 ng/ml peptide, VEGFs 40 ng/ml, 48 h
Description: FIG. 19: Spheroids of HUVECs (750 cells) were generated in hanging drops. They were suspended in Endothelial Cell Growth Medium containing 1 mg/ml rat tail collagen I and 0.6% (wt/vol) methylcellulose and distributed in 48-well plates (30 spheroids/well). After solidification at 37° C. the mixture was overlaid with Endothelial Cell Growth Medium containing 100 ng/ml v6 peptide (human v6 14mer) or control peptide and VEGFs (40 ng/ml). Pictures were taken 48 h later and sprouting was quantified with the computer program ImageJ.
Clusters of HUVEC cells, so-called spheroids, were generated in hanging drops and embedded in a three-dimensional collagen matrix. They were overlaid with medium containing the blocking substances and the growth factors. Activated by the growth factors VEGF-A165 and VEGF-A121 the ECs started to grow out of the spheroids (FIG. 19). […] Sprouting of the ECs was quantified by analysing the total length of all sprouts originating from one spheroid.

[4] = test system: Met; assay: HGF induced activation of Met and Erk in L3.6pl, HeLa and HT29 cells; type: cell-based, human; conditions: added before induction with HGF
Description: FIG. 14: A: Activation of Met and signal transduction induced by HGF depends on CD44v6 in L3.6pl cells. L3.6pl cells were treated with the human v6 peptide (human v6 14mer) or the rat v6 peptide as control prior to induction with 10 ng/ml HGF. Activation of Met and ERK was determined in western blot. The numbers refer to the fold induction. The experiment was repeated at least 5 times. B: Activation of c-Met and signal transduction induced by HGF depends on CD44v6 HeLa cells. Starved HeLa cells respectively HT29 cells were incubated with the v6 peptide (human v6 14mer) or a control peptide for 10 minutes at 37° C. and then induced with 25 ng/ml of HGF for the indicated time points. Cells were then either lysed and the lysates were subjected to Western Blot analysis for phospho-Met and Met. C: Activation of c-Met and signal transduction induced by HGF depends on CD44v6 in HT29 cells. HGF-induced c-Met and Erk phosphorylation in HT29 was determined as described above using phospho-specific antibodies. […]
The contribution of CD44v6 to Met signaling in the human epithelial pancreatic cancer cells L3.6pl (derived from Colo 357), the cervix carcinoma cells HeLa and the colon cancer cells HT29 were analysed using the CD44v6 peptide (v6 14mer; v6 5mer tested as well, data not shown).

[5] = test system: L3.6pl cells; assay: Regression of established metastases, L3.6pl orthotopic mouse model; type: in vivo, nude mice; conditions: treatment started three weeks after implantation; human v6 peptide or rat control peptide 20 μg i.p.
Description: In order to examine the regression of metastases (either BSp73ASs6 or L3.6pl) were implanted as described above. Tumor growth was allowed for three weeks. At that time all animals had developed metastases in the control group. Animals were injected i.p. with 20 μg (L3.6pl orthotopic mouse model: human v6 peptide or rat control peptide) or i.v. with 200 μg (rat syngeneic model: rat v6 peptide or mouse control peptide) of peptides three times per week. Animals were killed 23 days after the start of the peptide treatment.
The specific binding of the CD44v6 peptides to specific areas of the lungs in the rat system and of the liver in the human model raises the question whether these peptides might have an effect on already established metastases. In the experiments described in FIGS. 2 and 4 the peptides were applied early after injection of the tumor cells and repressed completely the establishment of metastases. In order to measure the effect of the CD44v6 peptide on already established metastases, other experimental settings were used. […] At the end of the experiments metastases could be detected in all animals treated with the control peptide (Table 3, FIG. 6B for the BSp73ASs6 cells, Table 3, FIG. 6C for L3.6pl cells) whereas animals treated with the species-specific CD44v6 peptides were free of metastasis. […]

KEQWFGNRWHEGYR [human 14mer, human CD44v6 14mer peptide]
VEGFR-2 activation and downstream signaling to Erk induced by VEGF-A165 [1]: blocked VEGFR-2 activation and downstream signaling to Erk | hVEGF secretion by L3.6pl cells [2]: can be blocked | sprouting in response to VEGF-A (VEGF-A165, VEGF-A121) [3]: blocked completely | activation of Met and of its downstream target Erk [4]: able to prevent activation of Met and of its downstream target Erk | presence of already established (liver) metastases after treatment [5]: eliminate already established metastases
